Literature values, collected in patent EP2939710B1, “Active Mixtures” (Symrise AG, priority 2014, dated 2015).

Settings: water (20° dH) at 20 °C, solid active agent

Nc1nc2c(ncn2COCCO)c(=O)[nH]1 [Acyclovir, 2-Amino-1,9-dihydro-9-((2-hydroxyethoxy)methyl)-6H-Purin-6-one]
solubility in water: less than 5 g/L
